Experimental data: patent US11905244B2, “Chemical modulators of store-operated calcium channels and their therapeutic applications” (The Texas A&M University System, priority 2017, dated 2024)
Entries after “also recorded” stand apart in the source; their conditions may differ. Read-outs that look alike come from different tables or passages of the source.

Legend:
[1] = target: CRAC channel (Homo sapiens (Human), UniProt Q96D31); assay: GFP-NFAT translocation-based high-content screening (TG-stimulated HeLa cells stably expressing GFP-NFAT); type: cell-based; settings: for Inhibitory activity on CRAC channel in primary screening (NFAT nucleus-to-cytosol ratio): 200 μM compound
From the text: It is known that thapsigargin (TG) can induce the CRAC channel to open resulting in the calcium influx. The elevation of calcium in cytoplasm can activate the Ca^2+-calcineurin-NFAT pathway followed by NFAT translocation from the cytoplasm to the nucleus to regulate gene transcription. Therefore, the inventors built a GFP-NFAT translocation-based high-content screening method to evaluate the activity of compounds on CRAC channel. Briefly, a HeLa cell line stably expressing GFP-NFAT was established and used, and the images after chemical stimulation in the presence of TG were acquired using an IN Cell Analyzer 6000 confocal laser imaging system, and then the GFP fluorescent intensity ratio between cytoplasm and nucleus was analyzed to reflect the inhibitory activity of compound on CRAC channel.
Briefly, GFP-NFAT stable cells were cultured in Dulbecco's modified eagle's medium (DMEM) supplemented with 10% FBS in 5% carbon dioxide at 37° C. When it reached 90% confluency, a cell suspension with a concentration of […] was prepared, and an amount of 2000 cells per well (25 μL/well) was seeded in 384 well plate, putting it at the room temperature for 1 h to make sure the cells distribute evenly, then the cells were incubated overnight. First, primary screening of the selected compounds was conducted. A series of compound solutions with a concentration of 200 μM in MEDM medium were prepared in a 96 well plate and then added to a 384 well plate using a Beckman Coulter automatic drug adding system, in 4 duplicates, and incubated for 30 min at 37° C. SKF was selected as the positive control. Then, 1 μM TG and 1 mM Ca^2+ were added to 384-well plate using Beckman Coulter automatic drug adding system and incubated for 20 min. Subsequently, 384 well plate was gently washed with PBS twice, and the cells were fixed with 4% PFA (25 μl per well) for 10˜15 mins at room temperature, then washed with PBS gently, added 0.5% Triton X-100 (25 μL per well), and incubated for 5 mins aFt room temperature, stained with DAPI (1 μg/mL) for 5˜10 mins at room temperature, washed with PBS and added 30 μL PBS per well to image on confocal laser imaging system (objective lens: 10×, FITC and UV). Using Pipeline Plot software (NAFT translocation protocol), the intensity of green fluorescence was analyzed in nucleus and cytosol, calculate the ratio of nucleus:cytosol, normalize TG stimulate NFAT translocation as 1 and no TG adding as 0. Finally, the data was analyzed using GraphPad Prism 5 software.

[2] = tested on: MDA-MB-231 breast cancer cells; assay: Migration assay (wound healing assay); type: cell-based; settings: MDA-MB-231, wound healing assay
Procedure: The effect of compounds on inhibiting migration was evaluated using wound healing assay. Briefly, cells were seeded in a six well-plate, and a wound was generated by scratching the cell monolayer with a 200 μL pipette tip. Then, cells were continued to be cultured in the presence or absence of compounds, and the photographic recording was performed at 0 h, 24 h, and 48 h respectively. The number of the migrated cells was calculated with ImageJ software.

[3] = tested on: MDA-MB-231 breast cancer cells; assay: Invasion assay; type: cell-based
[4] = tested on: IL-2 and IFNγ expression in Jurkat cell; assay: Cytokine expression in Jurkat cells; type: cell-based
[5] = tested on: cytokine IL-2 expression in primary T cells; assay: Effect of compounds on cytokine expression in primary T cells (flow cytometry); type: cell-based; settings: Mus musculus, T-cell
Procedure: The lymph nodes and a spleen from mouse were collected, and then the immune cells were induced to differentiate towards Th1 cells in presence of α-CD3, α-CD28, IL-12, and IL-2. After obtaining Th1 cells, the cells were amplified and then the cells were treated with drugs. The expression level of the cytokine was analyzed using flow cytometry.

[6] = tested on: azoxymethane (AOM)-induced mouse colon cancer model; assay: Azoxymethane (AOM)-induced mouse colon cancer model; type: in vivo; settings: treated for 8 weeks
Procedure: To induce colon cancer in situ, mice (four month old) were randomly divided into three groups: (1) AOM control group; (2) Compound 53 group, (3) CsA group, and injected with AOM subcutaneously (10 mg/kg body weight) once a week for 4 weeks. Then, Compound 53 and CsA group were treated with Compound 53 and CsA respectively for 8 weeks, and the control group was treated with 0.9% NaCl solution. Then, mice were killed and the colon was isolated. The number of the tumors formed was analyzed.

[7] = tested on: U87 cells; assay: Cell cycle analysis in U87 cells; type: cell-based; settings: compared to control
Procedure: (§1) Cells were treated with or without compounds at 37° C. with 5% CO2. After incubation for 24 h, cells were collected by trypsinization and fixed with cold 95% ethanol over 30 min at 4° C. Subsequently, the cell suspension was centrifuged at 1000 rmp/5 min, and washed with PBS one time. The cell pellets were resuspended in 0.4 mL PBS and treated with RNAase A (0.1 mg/mL) at 37° C. for 30 min. Then, propidium iodine (50 μg/mL, PI) was added and the cells were stained for 30 min at 37° C. Analysis of cellular DNA content was performed by flow cytometry.

[8] = tested on: Jurkat cells; assay: Cell cycle analysis in Jurkat cells; type: cell-based; settings: compared to control
Procedure: as §1

[9] = tested on: calcium influx; assay: Inhibitory activity on calcium influx; type: cell-based
[10] = Table 2, unit inferred, read-out: IC50 of the compounds (inhibitory activity on CRAC channel)
[11] = GFP-NFAT translocation assay, read-out: IC50 on CRAC channel
[12] = Table 1, hits from virtual screening, unit inferred, read-out: IC50 Value

CRAC channel, sequence (Q96D31 whole entry): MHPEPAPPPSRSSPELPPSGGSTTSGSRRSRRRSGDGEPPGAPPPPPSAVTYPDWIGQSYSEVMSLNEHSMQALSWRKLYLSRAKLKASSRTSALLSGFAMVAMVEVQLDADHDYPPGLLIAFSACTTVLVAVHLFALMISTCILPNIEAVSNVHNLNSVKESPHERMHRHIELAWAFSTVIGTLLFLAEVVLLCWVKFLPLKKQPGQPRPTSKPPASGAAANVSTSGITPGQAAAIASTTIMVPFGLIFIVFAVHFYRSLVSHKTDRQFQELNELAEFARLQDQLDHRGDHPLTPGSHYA

Structure (SMILES)	IC50 [1, 10] [µM]	IC50 [1, 12] [µM]	further results
COc1ccc(N2C(=O)CC(S/C(=N/c3cc(OC)ccc3OC)NCCc3ccc(S(N)(=O)=O)cc3)C2=O)cc1 (centres unmarked) [Compound 109]	> 200	–	–
COC(=O)c1ccc(N2C(=O)CC(S/C(=N/c3ccc(C)cc3)NCCc3ccc(S(N)(=O)=O)cc3)C2=O)cc1 (centres unmarked) [Compound 102]	9.2	–	–
COC(=O)c1ccc(N2C(=O)CC(S/C(=N/c3cccc(OC)c3)NCCc3ccc(S(N)(=O)=O)cc3)C2=O)cc1 (centres unmarked) [Compound 101]	11.2	–	–
Nc1nc(C(=O)O)nn1C12CC3CC(CC(C3)C1)C2 [Compound 48]	–	> 200	–
Cc1cc(=O)n2c3c(cc(S(=O)(=O)NCc4ccc(C(=O)O)cc4)cc13)CC2 [Compound 12]	–	> 200	–
COc1ccc(-c2occ(C(=O)O)c2C(=O)O)cc1 [Compound 34]	–	> 200	–
O=c1[nH]nnc2c1C1=C(CCCC1)C2 [Compound 51]	–	> 200	–
C=CC[C@H]1N(c2ccccc2Cl)C[C@H]2[C@H](C(=O)O)[C@@H]3C=C[C@@]21O3 [Compound 25]	–	> 200	–
Cc1ccc(S(=O)(=O)Nc2ccc(O)c(C(=O)O)c2)c(C)c1 [Compound 46]	–	> 200	–
CN(C)c1ccc(CNCc2ccc(C(=O)O)cc2)cc1 [Compound 49]	–	> 200	–
CN/C(=N/c1cc(Cl)cc(Cl)c1)SC1CC(=O)N(c2ccc(C(=O)O)cc2)C1=O (centres unmarked) [Compound 69]	108	–	–
O=C(CSCc1c(Cl)cccc1Cl)Nc1ccc(C(=O)O)cc1 [Compound 09]	–	> 200	–
O=C(O)CN1C(=O)[C@@H]2[C@@H](C1=O)[C@H]1C=C[C@@H]2C1 [Compound 37]	–	> 200	–
O=C1CCC(=O)N1c1ccc(S(=O)(=O)O)cc1 [Compound 36]	–	> 200	–
Nc1c(S(=O)(=O)O)ccc2c1C(=O)c1ccccc1C2=O [Compound 28]	–	> 200	–
CCN/C(=N\c1cc(Cl)cc(Cl)c1)S[C@H]1CC(=O)N(c2ccc(C(=O)O)cc2)C1=O [Compound 41]	–	279	Inhibitory activity on CRAC channel in primary screening (NFAT nucleus-to-cytosol ratio) [1]: good activity; IC50 [1, 11]: ~100 µM; Inhibitory activity on calcium influx [9]: obvious inhibitory activity
Cc1cc(C)c(S(=O)(=O)Nc2ccc(O)c(C(=O)O)c2)c(C)c1 [Compound 06]	–	> 200	–
O=C(O)c1ccc2c(c1)[C@@H](Cl)Cc1ccccc1S2 [Compound 35]	–	> 200	–
O=C(O)c1ccc(N2C(=O)c3cccc4cc(Br)cc(c34)C2=O)cc1 [Compound 24]	–	> 200	–
Cc1ccc(/N=C(\NCCc2ccc(S(N)(=O)=O)cc2)SC2CC(=O)N(c3ccc(C)cc3)C2=O)cc1 (centres unmarked) [Compound 115]	5.84	–	–
O=C(CCCc1nc(-c2ccccc2)no1)Nc1ccc(C(=O)O)cc1 [Compound 13]	–	> 200	–
Cc1c(C(=O)O)nnn1-c1ccc(Br)cc1 [Compound 32]	–	> 200	–
COc1ccc(/N=C(\NCCc2ccc(S(N)(=O)=O)cc2)SC2CC(=O)N(c3ccc(OC)cc3)C2=O)cc1 (centres unmarked) [Compound 108]	> 200	–	–

Now from value to molecule, other results behind:

IC50 [1, 10] [µM]	IC50 [1, 12] [µM]	Structure (SMILES)	further results
30.6	–	CN/C(=N/c1cc(Cl)ccc1Cl)SC1CC(=O)N(c2ccc(C(=O)OC)cc2)C1=O (centres unmarked) [Compound 65]	Inhibitory activity on CRAC channel in primary screening (NFAT nucleus-to-cytosol ratio) [1]: good inhibition; Cell migration [2]: greatly inhibit
13	–	COC(=O)c1ccc(N2C(=O)CC(S/C(=N\c3ccccc3)NCCc3ccc(S(N)(=O)=O)cc3)C2=O)cc1 (centres unmarked) [Compound 53]	Cell invasion [3]: greatly inhibit; IL-2 and IFNγ (cytokine) expression [4]: inhibit IL-2 and IFNγ expression; also recorded: inhibits cytokine expression; Inhibitory activity on CRAC channel in primary screening (NFAT nucleus-to-cytosol ratio) [1]: good inhibition; IC50 [1, 11]: 8.14 µM; Cell migration [2]: greatly inhibit; IC50 [5]: 15.6 ± 1.17 µM; Antitumor activity compared with positive control drug CsA [6]: better than the positive control drug CsA; Number of the formed tumors in the colon [6]: greatly decrease the number of the formed tumors; also recorded: reducing the number of tumors formed compared to the control group
0.95	–	CCOC(=O)c1ccc(N2C(=O)CC(S/C(=N/c3ccccc3)NC3CC3)C2=O)cc1 (centres unmarked) [Compound 87]	Cell invasion [3]: greatly inhibit; Cell migration [2]: greatly inhibit; IC50 [5]: 0.86 ± 0.12 µM; Effect on cell cycle [7]: cell cycle arrest at GO stage; Effect on cell cycle [8]: cell cycle arrest at GO stage
> 200	–	CCN/C(=N/c1ccc(C(F)(F)F)cc1)SC1CC(=O)N(c2ccc(C(=O)O)cc2)C1=O (centres unmarked) [Compound 55]	–
> 200	–	CN/C(=N/c1ccc(F)cc1)SC1CC(=O)N(c2ccc(C(=O)O)cc2)C1=O (centres unmarked) [Compound 54]	–
18.2	–	CNC(=O)c1ccc(N2C(=O)CC(S/C(=N/c3ccccc3)NCCc3ccc(S(N)(=O)=O)cc3)C2=O)cc1 (centres unmarked) [Compound 99]	–
> 200	–	CCOC(=O)c1ccc(N2C(=O)CC(Sc3nc4ccccc4n3CCc3ccc(S(N)(=O)=O)cc3)C2=O)cc1 (centres unmarked) [Compound 117]	–
> 200	–	CCN/C(=N/c1cccc(OC)c1)SC1CC(=O)N(c2ccc(C(=O)O)cc2)C1=O (centres unmarked) [Compound 72]	–
> 200	–	CCOC(=O)c1ccc(N2C(=O)CC(S/C(=N/c3ccc(C)cc3)NCCc3ccc(S(N)(=O)=O)cc3)C2=O)cc1 (centres unmarked) [Compound 116]	–
> 200	–	CNC(=O)c1ccc(N2C(=O)CC(S/C(=N/c3ccccc3)NC(C)(C)C)C2=O)cc1 (centres unmarked) [Compound 95]	–
11.7	–	COC(=O)c1ccc(N2C(=O)CC(S/C(=N/c3ccccc3)NC(C)C)C2=O)cc1 (centres unmarked) [Compound 79]	–
–	> 200	CCN/C(=N\c1ccc(Cl)c(Cl)c1)S[C@H]1CC(=O)N(c2ccc(C(=O)O)cc2)C1=O [Compound 30]	–
> 200	–	CN/C(=N/c1cc(Cl)ccc1Cl)SC1CC(=O)N(c2ccc(C(=O)O)cc2)C1=O (centres unmarked) [Compound 56]	–
> 200	–	COC(=O)c1ccc(N2C(=O)CC(S/C(=N/c3ccccc3)NC(C)(C)C)C2=O)cc1 (centres unmarked) [Compound 81]	–
1.6	–	COc1ccc(/N=C(\NCCc2ccc(S(N)(=O)=O)cc2)SC2CC(=O)N(c3ccccc3)C2=O)cc1 (centres unmarked) [Compound 111]	–
> 200	–	CNC(=O)c1ccc(N2C(=O)CC(S/C(=N/c3ccccc3)NC(C)C)C2=O)cc1 (centres unmarked) [Compound 93]	–
> 200	–	CCOC(=O)c1ccc(N2C(=O)CC(SCc3nnnn3-c3ccccc3)C2=O)cc1 (centres unmarked) [Compound 57]	–
> 200	–	CN/C(=N/c1cccc(F)c1)SC1CC(=O)N(c2ccc(C(=O)O)cc2)C1=O (centres unmarked) [Compound 70]	–
10.5	–	CCN/C(=N/c1ccc2c(c1)OCO2)SC1CC(=O)N(c2ccc(C(=O)OC)cc2)C1=O (centres unmarked) [Compound 66]	Inhibitory activity on CRAC channel in primary screening (NFAT nucleus-to-cytosol ratio) [1]: good inhibition; Cell migration [2]: greatly inhibit
